Source: ChEMBL document CHEMBL4507296 (2021)

Experiments:
[1] = molecular target: Death-associated protein kinase 3 (Homo sapiens) (UniProt O43293); conditions: Compound concentration 1000.0 nM
[2] = molecular target: Serine/threonine-protein kinase Sgk2 (Homo sapiens) (UniProt Q9HBY8); conditions: Compound concentration 1000.0 nM
[3] = molecular target: Myosin light chain kinase 2, skeletal/cardiac muscle (Homo sapiens) (UniProt Q9H1R3); conditions: Compound concentration 1000.0 nM
[4] = molecular target: 5-hydroxytryptamine receptor 2A (Homo sapiens) (UniProt P28223); conditions: Compound concentration 10.0 uM
[5] = molecular target: NUAK family SNF1-like kinase 2 (Homo sapiens) (UniProt Q9H093); conditions: Compound concentration 1000.0 nM
[6] = molecular target: Citron Rho-interacting kinase (Homo sapiens) (UniProt O14578); conditions: Compound concentration 1000.0 nM
[7] = molecular target: Tyrosine-protein kinase Fes/Fps (Homo sapiens) (UniProt P07332); conditions: Compound concentration 1000.0 nM
[8] = molecular target: Fibroblast growth factor receptor 1 (Homo sapiens) (UniProt P11362); conditions: Compound concentration 1000.0 nM
[9] = molecular target: Tyrosine-protein kinase JAK1 (Homo sapiens) (UniProt P23458); conditions: Compound concentration 1000.0 nM
[10] = molecular target: Serine/threonine-protein kinase WNK4 (Homo sapiens) (UniProt Q96J92); conditions: Compound concentration 1000.0 nM
[11] = molecular target: Cyclin-dependent kinase 15 (Homo sapiens) (UniProt Q96Q40); conditions: Compound concentration 1000.0 nM
[12] = molecular target: Serine/threonine-protein kinase MARK2 (Homo sapiens) (UniProt Q7KZI7); conditions: Compound concentration 1000.0 nM
[13] = tested on: Hepatocyte growth factor receptor (Homo sapiens), P08581 [M1250T]; conditions: Compound concentration 1000.0 nM
[14] = molecular target: Tyrosine-protein kinase FRK (Homo sapiens) (UniProt P42685); conditions: Compound concentration 1000.0 nM
[15] = molecular target: Protein kinase C delta type (Homo sapiens) (UniProt Q05655); conditions: Compound concentration 1000.0 nM
[16] = molecular target: Cyclin-dependent kinase 19 (Homo sapiens) (UniProt Q9BWU1); conditions: Compound concentration 1000.0 nM
[17] = molecular target: Sodium-dependent noradrenaline transporter (Homo sapiens) (UniProt P23975); conditions: Compound concentration 10.0 uM
[18] = molecular target: Mitogen-activated protein kinase kinase kinase 10 (Homo sapiens) (UniProt Q02779); conditions: Compound concentration 1000.0 nM
[19] = molecular target: Myosin light chain kinase, smooth muscle (Homo sapiens) (UniProt Q15746); conditions: Compound concentration 1000.0 nM
[20] = molecular target: Tyrosine-protein kinase Srms (Homo sapiens) (UniProt Q9H3Y6); conditions: Compound concentration 1000.0 nM
[21] = molecular target: Interferon-induced, double-stranded RNA-activated protein kinase (Homo sapiens) (UniProt P19525); conditions: Compound concentration 1000.0 nM
[22] = molecular target: Serine/threonine-protein kinase pim-1 (Homo sapiens) (UniProt P11309); conditions: Compound concentration 1000.0 nM
[23] = molecular target: MAP/microtubule affinity-regulating kinase 3 (Homo sapiens) (UniProt P27448); conditions: Compound concentration 1000.0 nM
[24] = molecular target: Serine/threonine-protein kinase RIO3 (Homo sapiens) (UniProt O14730); conditions: Compound concentration 1000.0 nM
[25] = molecular target: Serine/threonine-protein kinase haspin (Homo sapiens) (UniProt Q8TF76); conditions: Compound concentration 1000.0 nM
[26] = molecular target: Macrophage colony-stimulating factor 1 receptor (Homo sapiens) (UniProt P07333); conditions: Compound concentration 1000.0 nM
[27] = tested on: Phosphatidylinositol 4,5-bisphosphate 3-kinase catalytic subunit alpha isoform (Homo sapiens), P42336 [E545K]; conditions: Compound concentration 1000.0 nM
[28] = molecular target: Mitogen-activated protein kinase 3 (Homo sapiens) (UniProt P27361); conditions: Compound concentration 1000.0 nM
[29] = molecular target: Mitogen-activated protein kinase kinase kinase kinase 2 (Homo sapiens) (UniProt Q12851); conditions: Compound concentration 1000.0 nM
[30] = tested on: Receptor-type tyrosine-protein kinase FLT3 (Homo sapiens), P36888 [D835H]; conditions: Compound concentration 1000.0 nM
[31] = molecular target: Ephrin type-B receptor 3 (Homo sapiens) (UniProt P54753); conditions: Compound concentration 1000.0 nM
[32] = molecular target: Myosin-IIIb (Homo sapiens) (UniProt Q8WXR4); conditions: Compound concentration 1000.0 nM
[33] = molecular target: Dual specificity protein kinase CLK2 (Homo sapiens) (UniProt P49760); conditions: Compound concentration 1000.0 nM
[34] = molecular target: Serine/threonine-protein kinase ICK (Homo sapiens) (UniProt Q9UPZ9); conditions: Compound concentration 1000.0 nM
[35] = molecular target: BDNF/NT-3 growth factors receptor (Homo sapiens) (UniProt Q16620); conditions: Compound concentration 1000.0 nM
[36] = molecular target: Serine/threonine-protein kinase Nek1 (Homo sapiens) (UniProt Q96PY6); conditions: Compound concentration 1000.0 nM
[37] = molecular target: Tyrosine-protein kinase Fgr (Homo sapiens) (UniProt P09769); conditions: Compound concentration 1000.0 nM
[38] = molecular target: Protein-tyrosine kinase 6 (Homo sapiens) (UniProt Q13882); conditions: Compound concentration 1000.0 nM
[39] = molecular target: Serine/threonine-protein kinase Nek3 (Homo sapiens) (UniProt P51956); conditions: Compound concentration 1000.0 nM
[40] = tested on: Mast/stem cell growth factor receptor Kit (Homo sapiens), P10721 [V559D,T670I]; conditions: Compound concentration 1000.0 nM
[41] = molecular target: Serine/threonine-protein kinase 24 (Homo sapiens) (UniProt Q9Y6E0); conditions: Compound concentration 1000.0 nM
[42] = tested on: Epidermal growth factor receptor (Homo sapiens), P00533 [L858R]; conditions: Compound concentration 1000.0 nM
[43] = molecular target: Serine/threonine-protein kinase D2 (Homo sapiens) (UniProt Q9BZL6); conditions: Compound concentration 1000.0 nM
[44] = molecular target: Serine/threonine-protein kinase PAK 3 (Homo sapiens) (UniProt O75914); conditions: Compound concentration 1000.0 nM
[45] = molecular target: Receptor-type tyrosine-protein kinase FLT3 (Homo sapiens) (UniProt P36888); conditions: Compound concentration 1000.0 nM

Sequence of Serine/threonine-protein kinase pim-1 (Homo sapiens) (P11309 whole entry, looked up): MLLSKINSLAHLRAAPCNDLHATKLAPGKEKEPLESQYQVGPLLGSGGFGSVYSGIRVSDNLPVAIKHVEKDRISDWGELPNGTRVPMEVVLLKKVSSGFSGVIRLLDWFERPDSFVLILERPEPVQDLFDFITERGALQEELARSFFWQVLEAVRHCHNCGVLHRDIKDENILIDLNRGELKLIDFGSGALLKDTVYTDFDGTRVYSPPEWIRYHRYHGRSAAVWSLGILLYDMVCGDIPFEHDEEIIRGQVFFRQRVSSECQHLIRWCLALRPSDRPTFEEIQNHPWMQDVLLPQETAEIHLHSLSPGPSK
Sequence of Ephrin type-B receptor 3 (Homo sapiens) (P54753 whole entry): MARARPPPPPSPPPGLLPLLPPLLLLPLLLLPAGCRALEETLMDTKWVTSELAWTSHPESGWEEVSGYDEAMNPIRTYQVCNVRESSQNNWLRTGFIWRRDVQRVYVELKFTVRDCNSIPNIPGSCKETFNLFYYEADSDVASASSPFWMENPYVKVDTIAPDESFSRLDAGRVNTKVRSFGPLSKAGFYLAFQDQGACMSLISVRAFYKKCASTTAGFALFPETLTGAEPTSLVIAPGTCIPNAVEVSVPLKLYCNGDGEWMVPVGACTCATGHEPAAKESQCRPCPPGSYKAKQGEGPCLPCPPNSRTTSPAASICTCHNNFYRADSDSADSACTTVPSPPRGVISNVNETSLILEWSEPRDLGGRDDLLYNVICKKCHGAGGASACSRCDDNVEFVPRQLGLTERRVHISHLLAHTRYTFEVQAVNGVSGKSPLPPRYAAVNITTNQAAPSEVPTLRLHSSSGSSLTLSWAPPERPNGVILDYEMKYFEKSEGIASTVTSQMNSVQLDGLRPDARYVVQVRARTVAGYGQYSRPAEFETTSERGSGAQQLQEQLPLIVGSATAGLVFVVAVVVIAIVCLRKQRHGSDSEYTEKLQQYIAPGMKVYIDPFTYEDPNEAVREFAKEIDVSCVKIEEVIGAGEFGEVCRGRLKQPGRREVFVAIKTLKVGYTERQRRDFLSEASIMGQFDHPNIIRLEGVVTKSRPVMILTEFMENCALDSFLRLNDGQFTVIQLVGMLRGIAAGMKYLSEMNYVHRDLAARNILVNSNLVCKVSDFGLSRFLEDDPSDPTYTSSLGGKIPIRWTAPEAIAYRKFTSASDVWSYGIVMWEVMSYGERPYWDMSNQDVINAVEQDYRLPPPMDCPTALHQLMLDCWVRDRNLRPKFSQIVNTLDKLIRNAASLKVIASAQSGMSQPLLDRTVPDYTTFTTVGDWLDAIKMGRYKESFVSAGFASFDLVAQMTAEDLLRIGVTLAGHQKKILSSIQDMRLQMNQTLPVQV
Sequence of Myosin light chain kinase, smooth muscle (Homo sapiens) (Q15746 whole entry): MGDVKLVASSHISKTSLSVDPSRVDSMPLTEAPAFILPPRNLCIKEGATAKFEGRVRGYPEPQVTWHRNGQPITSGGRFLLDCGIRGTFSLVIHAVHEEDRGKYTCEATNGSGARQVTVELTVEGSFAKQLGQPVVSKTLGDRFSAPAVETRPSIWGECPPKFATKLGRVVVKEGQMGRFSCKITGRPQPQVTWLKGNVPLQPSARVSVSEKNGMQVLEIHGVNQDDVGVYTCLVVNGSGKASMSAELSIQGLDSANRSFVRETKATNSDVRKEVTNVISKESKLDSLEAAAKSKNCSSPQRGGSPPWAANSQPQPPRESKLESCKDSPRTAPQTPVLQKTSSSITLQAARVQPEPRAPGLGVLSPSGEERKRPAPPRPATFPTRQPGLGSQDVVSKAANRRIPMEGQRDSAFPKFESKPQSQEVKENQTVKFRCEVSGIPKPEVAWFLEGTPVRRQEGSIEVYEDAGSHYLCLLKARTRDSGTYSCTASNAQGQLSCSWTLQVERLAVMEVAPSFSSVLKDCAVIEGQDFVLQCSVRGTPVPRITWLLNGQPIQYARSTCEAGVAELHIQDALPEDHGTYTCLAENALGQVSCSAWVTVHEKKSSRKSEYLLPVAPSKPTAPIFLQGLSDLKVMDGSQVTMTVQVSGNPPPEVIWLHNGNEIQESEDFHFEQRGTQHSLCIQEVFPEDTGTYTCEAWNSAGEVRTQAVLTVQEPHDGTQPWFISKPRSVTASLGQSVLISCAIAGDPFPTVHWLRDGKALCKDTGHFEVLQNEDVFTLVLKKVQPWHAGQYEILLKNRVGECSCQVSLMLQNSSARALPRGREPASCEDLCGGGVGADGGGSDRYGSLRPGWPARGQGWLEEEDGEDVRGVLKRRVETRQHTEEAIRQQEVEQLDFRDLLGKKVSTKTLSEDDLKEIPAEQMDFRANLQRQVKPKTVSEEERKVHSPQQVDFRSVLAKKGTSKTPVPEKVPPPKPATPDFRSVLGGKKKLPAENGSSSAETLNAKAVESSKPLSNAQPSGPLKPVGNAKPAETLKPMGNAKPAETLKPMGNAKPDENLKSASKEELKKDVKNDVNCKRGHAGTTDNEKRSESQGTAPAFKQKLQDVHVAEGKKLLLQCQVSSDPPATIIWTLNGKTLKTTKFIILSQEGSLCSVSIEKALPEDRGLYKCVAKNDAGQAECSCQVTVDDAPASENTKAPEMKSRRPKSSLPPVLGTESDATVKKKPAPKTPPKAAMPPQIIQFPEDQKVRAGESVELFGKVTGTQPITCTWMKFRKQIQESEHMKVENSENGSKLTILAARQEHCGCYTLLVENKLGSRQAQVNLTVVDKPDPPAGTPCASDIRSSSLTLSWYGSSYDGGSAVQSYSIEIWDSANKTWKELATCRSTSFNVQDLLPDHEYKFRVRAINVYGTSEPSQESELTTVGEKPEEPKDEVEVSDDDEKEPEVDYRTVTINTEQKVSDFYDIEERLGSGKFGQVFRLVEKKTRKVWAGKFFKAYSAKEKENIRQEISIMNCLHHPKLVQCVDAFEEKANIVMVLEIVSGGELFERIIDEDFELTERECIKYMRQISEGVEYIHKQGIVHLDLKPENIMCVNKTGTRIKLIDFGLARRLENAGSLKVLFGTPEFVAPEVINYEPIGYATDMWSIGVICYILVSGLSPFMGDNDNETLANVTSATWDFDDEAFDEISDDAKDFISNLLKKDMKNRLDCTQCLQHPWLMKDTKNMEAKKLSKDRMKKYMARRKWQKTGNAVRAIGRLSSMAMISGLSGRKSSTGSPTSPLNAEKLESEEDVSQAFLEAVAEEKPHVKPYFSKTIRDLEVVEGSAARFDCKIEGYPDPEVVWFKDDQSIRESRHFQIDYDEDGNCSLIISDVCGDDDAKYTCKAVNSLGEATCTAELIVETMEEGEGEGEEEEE
Sequence of Sodium-dependent noradrenaline transporter (Homo sapiens) (P23975 whole entry): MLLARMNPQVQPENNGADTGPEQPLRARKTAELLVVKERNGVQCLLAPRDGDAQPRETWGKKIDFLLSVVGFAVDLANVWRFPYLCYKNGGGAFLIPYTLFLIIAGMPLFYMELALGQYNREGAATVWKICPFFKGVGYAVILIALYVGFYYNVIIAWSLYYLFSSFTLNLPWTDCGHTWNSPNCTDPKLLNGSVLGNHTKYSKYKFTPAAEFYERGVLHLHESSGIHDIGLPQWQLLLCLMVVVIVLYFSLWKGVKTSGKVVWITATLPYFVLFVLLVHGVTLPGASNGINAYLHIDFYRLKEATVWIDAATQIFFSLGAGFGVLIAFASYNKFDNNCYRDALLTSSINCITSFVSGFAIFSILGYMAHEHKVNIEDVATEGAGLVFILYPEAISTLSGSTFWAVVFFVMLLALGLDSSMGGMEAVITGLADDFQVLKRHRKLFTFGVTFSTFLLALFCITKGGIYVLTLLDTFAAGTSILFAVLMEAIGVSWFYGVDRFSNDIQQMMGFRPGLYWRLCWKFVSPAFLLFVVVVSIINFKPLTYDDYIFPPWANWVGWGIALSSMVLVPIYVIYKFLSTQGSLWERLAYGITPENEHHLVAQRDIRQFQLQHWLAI
Sequence of Tyrosine-protein kinase Srms (Homo sapiens) (Q9H3Y6 whole entry): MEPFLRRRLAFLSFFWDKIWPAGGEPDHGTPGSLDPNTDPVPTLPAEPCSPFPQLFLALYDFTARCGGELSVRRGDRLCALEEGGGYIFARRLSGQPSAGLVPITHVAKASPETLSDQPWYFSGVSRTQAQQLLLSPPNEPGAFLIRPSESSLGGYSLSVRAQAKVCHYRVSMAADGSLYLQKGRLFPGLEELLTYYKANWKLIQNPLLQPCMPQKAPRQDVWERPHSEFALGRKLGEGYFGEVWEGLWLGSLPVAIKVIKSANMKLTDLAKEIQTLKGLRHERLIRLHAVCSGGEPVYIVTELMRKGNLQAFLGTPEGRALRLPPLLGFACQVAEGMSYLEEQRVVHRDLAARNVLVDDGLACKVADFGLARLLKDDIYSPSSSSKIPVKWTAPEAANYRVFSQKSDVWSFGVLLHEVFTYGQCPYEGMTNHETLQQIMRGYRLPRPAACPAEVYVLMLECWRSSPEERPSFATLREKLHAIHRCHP
Sequence of Serine/threonine-protein kinase ICK (Homo sapiens) (Q9UPZ9 whole entry): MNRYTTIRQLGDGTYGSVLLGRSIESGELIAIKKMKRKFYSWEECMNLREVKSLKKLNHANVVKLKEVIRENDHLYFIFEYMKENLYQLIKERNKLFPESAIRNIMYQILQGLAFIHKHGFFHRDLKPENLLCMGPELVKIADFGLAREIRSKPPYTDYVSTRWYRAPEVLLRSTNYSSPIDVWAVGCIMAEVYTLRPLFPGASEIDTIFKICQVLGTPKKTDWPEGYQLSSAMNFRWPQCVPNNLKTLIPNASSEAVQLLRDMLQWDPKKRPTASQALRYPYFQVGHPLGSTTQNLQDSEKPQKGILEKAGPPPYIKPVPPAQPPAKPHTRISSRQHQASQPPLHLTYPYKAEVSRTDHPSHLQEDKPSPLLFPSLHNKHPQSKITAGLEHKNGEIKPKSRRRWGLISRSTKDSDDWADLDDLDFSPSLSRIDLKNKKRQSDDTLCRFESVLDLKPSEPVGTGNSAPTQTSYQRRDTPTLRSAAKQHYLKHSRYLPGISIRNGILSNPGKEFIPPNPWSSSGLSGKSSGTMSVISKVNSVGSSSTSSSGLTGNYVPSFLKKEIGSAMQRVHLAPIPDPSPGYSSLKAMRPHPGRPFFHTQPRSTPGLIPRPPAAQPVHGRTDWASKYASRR

C[C@H](c1ccc(F)cc1)N(Cc1cccc(C(=O)O)c1)C(=O)c1cnc2ccccc2c1 [PF-05105679]
inactive: residual activity [1] 100% | residual activity [2] 93% | residual activity [3] 100% | inhibition [4] -0.2% | residual activity [5] 100% | residual activity [6] 100% | residual activity [7] 100% | residual activity [8] 100% | residual activity [9] 100% | residual activity [10] 91% | residual activity [11] 100% | residual activity [12] 80% | residual activity [13] 93% | residual activity [14] 77% | residual activity [15] 100% | residual activity [16] 100% | inhibition [17] 2.04% | residual activity [18] 100% | residual activity [19] 76% | residual activity [20] 100% | residual activity [21] 100% | residual activity [22] 100% | residual activity [23] 100% | residual activity [24] 86% | residual activity [25] 100% | residual activity [26] 100% | residual activity [27] 100% | residual activity [28] 100% | residual activity [29] 100% | residual activity [30] 84% | residual activity [31] 100% | residual activity [32] 100% | residual activity [33] 98% | residual activity [34] 100% | residual activity [35] 100% | residual activity [36] 100% | residual activity [37] 100% | residual activity [38] 83% | residual activity [39] 87% | residual activity [40] 98% | residual activity [41] 100% | residual activity [42] 100% | residual activity [43] 100% | residual activity [44] 96% | residual activity [45] 100%
